Source: ChEMBL document CHEMBL1150531, “Acetylcholinesterase inhibition by fused dihydroquinazoline compounds” (Bioorg Med Chem Lett, 1996)

What was measured:
Acetylcholinesterase [1] = target: T1, Acetylcholinesterase (Rattus norvegicus, UniProt P37136)
T1 sequence (P37136 whole entry): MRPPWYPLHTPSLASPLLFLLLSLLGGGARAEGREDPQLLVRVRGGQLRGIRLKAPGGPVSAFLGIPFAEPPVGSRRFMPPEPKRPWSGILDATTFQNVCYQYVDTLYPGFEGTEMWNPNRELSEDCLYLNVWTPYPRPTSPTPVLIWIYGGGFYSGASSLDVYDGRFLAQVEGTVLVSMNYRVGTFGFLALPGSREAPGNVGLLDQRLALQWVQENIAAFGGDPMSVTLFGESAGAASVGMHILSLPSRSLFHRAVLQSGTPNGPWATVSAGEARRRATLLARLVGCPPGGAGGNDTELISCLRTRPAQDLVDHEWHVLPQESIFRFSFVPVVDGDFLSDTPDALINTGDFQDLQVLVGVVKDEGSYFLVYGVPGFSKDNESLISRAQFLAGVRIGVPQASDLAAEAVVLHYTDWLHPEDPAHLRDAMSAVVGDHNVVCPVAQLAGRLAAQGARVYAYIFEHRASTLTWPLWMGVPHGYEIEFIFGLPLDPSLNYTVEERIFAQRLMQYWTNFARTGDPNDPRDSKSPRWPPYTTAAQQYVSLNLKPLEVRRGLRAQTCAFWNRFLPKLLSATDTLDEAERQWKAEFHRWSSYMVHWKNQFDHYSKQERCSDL
Description: Inhibitory activity against acetylcholinesterase in rat brain

Acetylcholinesterase [2] = target: Acetylcholinesterase (Homo sapiens, UniProt P22303)
Chain of Acetylcholinesterase (Homo sapiens, UniProt P22303) (P22303 whole entry): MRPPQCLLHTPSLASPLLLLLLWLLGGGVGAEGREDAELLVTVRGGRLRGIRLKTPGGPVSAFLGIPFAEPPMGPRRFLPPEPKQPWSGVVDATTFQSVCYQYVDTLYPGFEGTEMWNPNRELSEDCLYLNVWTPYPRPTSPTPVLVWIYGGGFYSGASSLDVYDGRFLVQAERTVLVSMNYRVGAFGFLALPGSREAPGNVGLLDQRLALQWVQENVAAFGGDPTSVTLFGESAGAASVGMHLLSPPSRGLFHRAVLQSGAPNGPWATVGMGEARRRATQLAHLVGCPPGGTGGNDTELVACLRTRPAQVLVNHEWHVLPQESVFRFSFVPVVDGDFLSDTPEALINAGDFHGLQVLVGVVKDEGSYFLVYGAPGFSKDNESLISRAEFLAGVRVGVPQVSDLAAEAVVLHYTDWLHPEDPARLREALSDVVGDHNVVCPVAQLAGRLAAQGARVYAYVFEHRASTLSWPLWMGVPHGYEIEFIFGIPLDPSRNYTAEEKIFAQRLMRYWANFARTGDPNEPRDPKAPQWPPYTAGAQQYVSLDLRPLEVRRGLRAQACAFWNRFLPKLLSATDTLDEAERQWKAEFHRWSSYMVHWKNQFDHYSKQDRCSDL
Description: Inhibitory activity against acetylcholinesterase in human RBC

Structure (SMILES) | IC50 (Acetylcholinesterase [1]) | IC50 (Acetylcholinesterase [2])
Clc1cccc2c1CN1CCCCCC1=N2 | 4.75 µM | –
c1ccc2c(c1)CN1CCCCCCC1=N2 | 100 µM | 9.2 µM
c1ccc2c(c1)CN1CCCCC1=N2 | > 100 µM | 3.66 µM
O=c1c2ccc(Cl)cc2nc2n1CCCCC2 | > 100 µM | > 100 µM
c1ccc2c(c1)CN1CCCCCC1=N2 | 15 µM | 3.76 µM
Clc1ccc2c(c1)CN1CCCCCC1=N2 | 9.3 µM | –
N=c1c2ccc(Cl)cc2nc2n1CCCCC2 | 35.9 µM | –
c1ccc2c(c1)CN1CCCCCCCC1=N2 | > 100 µM | 13.5 µM
S=c1c2ccc(Cl)cc2nc2n1CCCCC2 | > 100 µM | > 100 µM
c1ccc2c(c1)CN1CCCC1=N2 | 18 µM | 3.72 µM
CCCCCCCNC(=O)Oc1ccc2c(c1)[C@]1(C)CCN(C)[C@@H]1N2C [EPTASTIGMINE] | 0.6 µM | 0.125 µM
C/C=C1\[C@H]2C=C(C)C[C@]1(N)c1ccc(=O)[nH]c1C2 [HUPERZINE A] | 0.094 µM | –
